US10526327B2, “Histone demethylase inhibitors” (CELGENE QUANTICEL RESEARCH, INC., priority 2013, dated 2020)

Experiments:
Jarid1B = target: T1, Jarid1B (Homo sapiens, UniProt Q9UGL1); assay: Jarid1B in vitro enzyme inhibition assay (TR-FRET); type: biochemical
T1 construct: purchased BPS Bioscience or custom made by MolecularThroughput 50121
T1 sequence (Q9UGL1 2-751): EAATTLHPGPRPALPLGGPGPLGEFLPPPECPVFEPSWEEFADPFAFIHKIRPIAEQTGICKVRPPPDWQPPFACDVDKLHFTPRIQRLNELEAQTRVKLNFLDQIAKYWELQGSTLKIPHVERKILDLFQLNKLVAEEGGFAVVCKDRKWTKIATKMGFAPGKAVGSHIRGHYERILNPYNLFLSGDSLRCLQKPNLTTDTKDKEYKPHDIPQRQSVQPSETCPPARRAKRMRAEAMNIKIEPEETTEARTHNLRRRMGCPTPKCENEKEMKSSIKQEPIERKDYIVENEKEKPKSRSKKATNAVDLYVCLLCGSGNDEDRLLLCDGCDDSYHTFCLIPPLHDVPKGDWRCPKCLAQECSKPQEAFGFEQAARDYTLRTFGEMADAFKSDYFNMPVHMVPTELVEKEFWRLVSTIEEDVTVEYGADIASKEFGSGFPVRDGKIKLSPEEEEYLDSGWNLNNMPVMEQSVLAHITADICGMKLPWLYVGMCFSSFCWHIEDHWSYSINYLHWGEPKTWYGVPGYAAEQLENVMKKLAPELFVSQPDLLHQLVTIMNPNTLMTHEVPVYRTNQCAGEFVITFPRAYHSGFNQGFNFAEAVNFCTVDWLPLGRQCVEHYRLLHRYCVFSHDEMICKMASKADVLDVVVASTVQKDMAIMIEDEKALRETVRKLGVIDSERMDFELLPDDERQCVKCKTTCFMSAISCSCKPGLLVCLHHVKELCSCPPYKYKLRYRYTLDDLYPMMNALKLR
How it was run: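 TR-FRET read-out of demethylated product (Eu-anti-H3K4me1-2, streptavidin-APC) after EDTA quench; ratio 665/615 fitted to IC50. Reaction: 30 min at RT, 0.8 nM baculovirus Jarid1B residues 2-751, 2 μM α-ketoglutarate, 300 nM H3K4me3-biotin peptide, pH 7.3 buffer with Fe(II) and ascorbate.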

JMJD2C = target: T2, JMJD2C (Homo sapiens, UniProt Q9H3R0); assay: JMJD2C in vitro enzyme inhibition assay (TR-FRET); type: biochemical
T2 construct: purchased BPS Bioscience 50105
T2 sequence (Q9H3R0 2-372): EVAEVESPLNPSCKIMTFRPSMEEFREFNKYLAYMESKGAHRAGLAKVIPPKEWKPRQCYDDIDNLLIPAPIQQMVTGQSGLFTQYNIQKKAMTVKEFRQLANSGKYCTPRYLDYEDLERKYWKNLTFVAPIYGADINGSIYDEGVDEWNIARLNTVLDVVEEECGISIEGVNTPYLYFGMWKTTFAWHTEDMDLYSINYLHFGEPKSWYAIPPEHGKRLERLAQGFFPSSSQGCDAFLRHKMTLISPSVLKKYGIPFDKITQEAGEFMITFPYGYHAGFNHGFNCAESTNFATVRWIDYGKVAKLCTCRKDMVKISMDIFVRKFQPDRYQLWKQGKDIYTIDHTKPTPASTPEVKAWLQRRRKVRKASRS
How it was run: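 IC50 came from 665/615 TR-FRET ratios (Eu-anti-H3K9me2 antibody, streptavidin-APC, EDTA quench) over 11-point inhibitor series. Reactions ran 30 min at room temperature: 0.3 nM JMJD2C (AA 2-372, baculovirus), 300 nM biotinylated H3K9me3 peptide, 2 μM alpha-ketoglutarate, 2 μM Fe(II), ascorbate, pH 7.3.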

Compound | IC50 (Jarid1B) | IC50 (JMJD2C)
Oc1nc(Oc2cnn([C@H]3CCNC3)c2)nc2cnccc12 [Example 135, 2-({1-[(3S)-pyrrolidin-3-yl]-1H-pyrazol-4-yl}oxy)pyrido[3,4-d]pyrimidin-4-ol] | ≤ 100 nM | ≤ 100 nM
CCS(=O)(=O)N1CC[C@H](n2cc(Oc3nc(O)c4ccncc4n3)cn2)C1 [Example 136, 2-({1-[(3S)-1-(ethanesulfonyl)pyrrolidin-3-yl]-1H-pyrazol-4-yl}oxy)pyrido[3,4-d]pyrimidin-4-ol] | ≤ 100 nM | ≤ 100 nM
O=S(=O)(C1CC1)N1CC[C@H](n2cc(Oc3nc(O)c4ccncc4n3)cn2)C1 [Example 137, 2-({1-[(3S)-1-(cyclopropanesulfonyl)pyrrolidin-3-yl]-1H-pyrazol-4-yl}oxy)pyrido[3,4-d]pyrimidin-4-ol] | ≤ 100 nM | ≤ 100 nM
O=S(=O)(c1ccccc1)N1CC[C@H](n2cc(Oc3nc(O)c4ccncc4n3)cn2)C1 [Example 138, 2-({1-[(3S)-1-(benzenesulfonyl)pyrrolidin-3-yl]-1H-pyrazol-4-yl}oxy)pyrido[3,4-d]pyrimidin-4-ol] | ≤ 100 nM | ≤ 100 nM
CC(=O)N1CC[C@H](n2cc(Oc3nc(O)c4ccncc4n3)cn2)C1 [Example 139, 1-[(3S)-3-[4-({4-hydroxypyrido[3,4-d]pyrimidin-2-yl}oxy)-1H-pyrazol-1-yl]pyrrolidin-1-yl]ethan-1-one] | ≤ 100 nM | ≤ 100 nM
N#CCC(=O)N1CC[C@H](n2cc(Oc3nc(O)c4ccncc4n3)cn2)C1 [Example 140, 3-[(3S)-3-[4-({4-hydroxypyrido[3,4-d]pyrimidin-2-yl}oxy)-1H-pyrazol-1-yl]pyrrolidin-1-yl]-3-oxopropanenitrile] | ≤ 100 nM | ≤ 100 nM
O=C(C1CC1)N1CC[C@H](n2cc(Oc3nc(O)c4ccncc4n3)cn2)C1 [Example 141, 2-({1-[(3S)-1-cyclopropanecarbonylpyrrolidin-3-yl]-1H-pyrazol-4-yl}oxy)pyrido[3,4-d]pyrimidin-4-ol] | ≤ 100 nM | ≤ 100 nM
O=C(c1ccccc1)N1CC[C@H](n2cc(Oc3nc(O)c4ccncc4n3)cn2)C1 [Example 142, 2-({1-[(3S)-1-benzoylpyrrolidin-3-yl]-1H-pyrazol-4-yl}oxy)pyrido[3,4-d]pyrimidin-4-ol] | ≤ 100 nM | ≤ 100 nM
O=C(C1CCNCC1)N1CC[C@H](n2cc(Oc3nc(O)c4ccncc4n3)cn2)C1 [Example 143, 2-({1-[(3S)-1-(piperidine-4-carbonyl)pyrrolidin-3-yl]-1H-pyrazol-4-yl}oxy)pyrido[3,4-d]pyrimidin-4-ol] | ≤ 100 nM | ≤ 100 nM
CNCC(=O)N1CC[C@H](n2cc(Oc3nc(O)c4ccncc4n3)cn2)C1 [Example 144, 1-[(3S)-3-[4-({4-hydroxypyrido[3,4-d]pyrimidin-2-yl}oxy)-1H-pyrazol-1-yl]pyrrolidin-1-yl]-2-(methylamino)ethan-1-one] | ≤ 100 nM | ≤ 100 nM
Oc1nc(Oc2cnn([C@H]3CCN(c4ccccc4)C3)c2)nc2cnccc12 [Example 145, 2-({1-[(3S)-1-phenylpyrrolidin-3-yl]-1H-pyrazol-4-yl}oxy)pyrido[3,4-d]pyrimidin-4-ol] | ≤ 100 nM | ≤ 100 nM
Oc1nc(Oc2cnn([C@H]3CCN(c4ccc(F)cc4)C3)c2)nc2cnccc12 [Example 146, 2-({1-[(3S)-1-(4-fluorophenyl)pyrrolidin-3-yl]-1H-pyrazol-4-yl}oxy)pyrido[3,4-d]pyrimidin-4-ol] | ≤ 100 nM | ≤ 100 nM
Oc1nc(Oc2cnn([C@H]3CCN(c4ccccc4F)C3)c2)nc2cnccc12 [Example 147, 2-({1-[(3S)-1-(2-fluorophenyl)pyrrolidin-3-yl]-1H-pyrazol-4-yl}oxy)pyrido[3,4-d]pyrimidin-4-ol] | ≤ 100 nM | ≤ 100 nM
Oc1nc(Oc2cnn([C@H]3CCN(c4ccc(Cl)cc4)C3)c2)nc2cnccc12 [Example 148, 2-({1-[(3S)-1-(4-chlorophenyl)pyrrolidin-3-yl]-1H-pyrazol-4-yl}oxy)pyrido[3,4-d]pyrimidin-4-ol] | ≤ 100 nM | ≤ 100 nM
Oc1nc(Oc2cnn([C@@H]3CCCNC3)c2)nc2cnccc12 [Example 149, 2-({1-[(3R)-piperidin-3-yl]-1H-pyrazol-4-yl}oxy)pyrido[3,4-d]pyrimidin-4-ol] | ≤ 100 nM | ≤ 100 nM
CCS(=O)(=O)N1CCC[C@@H](n2cc(Oc3nc(O)c4ccncc4n3)cn2)C1 [Example 150, 2-({1-[(3R)-1-(ethanesulfonyl)piperidin-3-yl]-1H-pyrazol-4-yl}oxy)pyrido[3,4-d]pyrimidin-4-ol] | ≤ 100 nM | ≤ 100 nM
O=S(=O)(c1ccccc1)N1CCC[C@@H](n2cc(Oc3nc(O)c4ccncc4n3)cn2)C1 [Example 152, 2-({1-[(3R)-1-(benzenesulfonyl)piperidin-3-yl]-1H-pyrazol-4-yl}oxy)pyrido[3,4-d]pyrimidin-4-ol] | ≤ 100 nM | ≤ 100 nM

More lines, now with the values ahead:

IC50 (Jarid1B) | IC50 (JMJD2C) | Compound
≤ 100 nM | ≤ 100 nM | Oc1nc(Oc2cnn([C@@H]3CCNC3)c2)nc2cnccc12 [Example 125, 2-({1-[(3R)-pyrrolidin-3-yl]-1H-pyrazol-4-yl}oxy)pyrido[3,4-d]pyrimidin-4-ol]
≤ 100 nM | ≤ 100 nM | CCS(=O)(=O)N1CC[C@@H](n2cc(Oc3nc(O)c4ccncc4n3)cn2)C1 [Example 126, 2-({1-[(3R)-1-(ethanesulfonyl)pyrrolidin-3-yl]-1H-pyrazol-4-yl}oxy)pyrido[3,4-d]pyrimidin-4-ol]
≤ 100 nM | ≤ 100 nM | O=S(=O)(C1CC1)N1CC[C@@H](n2cc(Oc3nc(O)c4ccncc4n3)cn2)C1 [Example 127, 2-({1-[(3R)-1-(cyclopropanesulfonyl)pyrrolidin-3-yl]-1H-pyrazol-4-yl}oxy)pyrido[3,4-d]pyrimidin-4-ol]
≤ 100 nM | ≤ 100 nM | O=S(=O)(c1ccccc1)N1CC[C@@H](n2cc(Oc3nc(O)c4ccncc4n3)cn2)C1 [Example 128, 2-({1-[(3R)-1-(benzenesulfonyl)pyrrolidin-3-yl]-1H-pyrazol-4-yl}oxy)pyrido[3,4-d]pyrimidin-4-ol]
≤ 100 nM | ≤ 100 nM | CC(=O)N1CC[C@@H](n2cc(Oc3nc(O)c4ccncc4n3)cn2)C1 [Example 129, 1-[(3R)-3-[4-({4-hydroxypyrido[3,4-d]pyrimidin-2-yl}oxy)-1H-pyrazol-1-yl]pyrrolidin-1-yl]ethan-1-one]
≤ 100 nM | ≤ 100 nM | N#CCC(=O)N1CC[C@@H](n2cc(Oc3nc(O)c4ccncc4n3)cn2)C1 [Example 130, 3-[(3R)-3-[4-({4-hydroxypyrido[3,4-d]pyrimidin-2-yl}oxy)-1H-pyrazol-1-yl]pyrrolidin-1-yl]-3-oxopropanenitrile]
≤ 100 nM | ≤ 100 nM | O=C(C1CC1)N1CC[C@@H](n2cc(Oc3nc(O)c4ccncc4n3)cn2)C1 [Example 131, 2-({1-[(3R)-1-cyclopropanecarbonylpyrrolidin-3-yl]-1H-pyrazol-4-yl}oxy)pyrido[3,4-d]pyrimidin-4-ol]
≤ 100 nM | ≤ 100 nM | O=C(c1ccccc1)N1CC[C@@H](n2cc(Oc3nc(O)c4ccncc4n3)cn2)C1 [Example 132, 2-({1-[(3R)-1-benzoylpyrrolidin-3-yl]-1H-pyrazol-4-yl}oxy)pyrido[3,4-d]pyrimidin-4-ol]
≤ 100 nM | ≤ 100 nM | Oc1nc(Oc2cnn([C@@H]3CCN(Cc4ccccc4)C3)c2)nc2cnccc12 [Example 133, 2-({1-[(3R)-1-benzylpyrrolidin-3-yl]-1H-pyrazol-4-yl}oxy)pyrido[3,4-d]pyrimidin-4-ol]
≤ 100 nM | ≤ 100 nM | Oc1nc(Oc2cnn([C@@H]3CCN(c4ccc(F)cc4)C3)c2)nc2cnccc12 [Example 134, 2-({1-[(3R)-1-(4-fluorophenyl)pyrrolidin-3-yl]-1H-pyrazol-4-yl}oxy)pyrido[3,4-d]pyrimidin-4-ol]
